One data set deals with PI3Kβ (Homo sapiens, UniProt P42338). The data set can be described thus: PI3Kβ inhibitory activity (Ki value). Format: biochemical. How it is done: According to Example 2 above, after 80 μg/mL PI-3 kinase γ of the enzyme solution (80 μg/mL PI-3 kinase γ, 10 mmol/L MgCl2, 5 mmol/L DTT) was changed to 60 μg/mL PI-3 kinase β, a method similar to the method for measuring PI3Kγ inhibitory activity was used to calculate an inhibition ratio, which was defined as the PI3Kβ inhibitory activity.
Sequence of PI3Kβ (P42338 whole entry, species assumed): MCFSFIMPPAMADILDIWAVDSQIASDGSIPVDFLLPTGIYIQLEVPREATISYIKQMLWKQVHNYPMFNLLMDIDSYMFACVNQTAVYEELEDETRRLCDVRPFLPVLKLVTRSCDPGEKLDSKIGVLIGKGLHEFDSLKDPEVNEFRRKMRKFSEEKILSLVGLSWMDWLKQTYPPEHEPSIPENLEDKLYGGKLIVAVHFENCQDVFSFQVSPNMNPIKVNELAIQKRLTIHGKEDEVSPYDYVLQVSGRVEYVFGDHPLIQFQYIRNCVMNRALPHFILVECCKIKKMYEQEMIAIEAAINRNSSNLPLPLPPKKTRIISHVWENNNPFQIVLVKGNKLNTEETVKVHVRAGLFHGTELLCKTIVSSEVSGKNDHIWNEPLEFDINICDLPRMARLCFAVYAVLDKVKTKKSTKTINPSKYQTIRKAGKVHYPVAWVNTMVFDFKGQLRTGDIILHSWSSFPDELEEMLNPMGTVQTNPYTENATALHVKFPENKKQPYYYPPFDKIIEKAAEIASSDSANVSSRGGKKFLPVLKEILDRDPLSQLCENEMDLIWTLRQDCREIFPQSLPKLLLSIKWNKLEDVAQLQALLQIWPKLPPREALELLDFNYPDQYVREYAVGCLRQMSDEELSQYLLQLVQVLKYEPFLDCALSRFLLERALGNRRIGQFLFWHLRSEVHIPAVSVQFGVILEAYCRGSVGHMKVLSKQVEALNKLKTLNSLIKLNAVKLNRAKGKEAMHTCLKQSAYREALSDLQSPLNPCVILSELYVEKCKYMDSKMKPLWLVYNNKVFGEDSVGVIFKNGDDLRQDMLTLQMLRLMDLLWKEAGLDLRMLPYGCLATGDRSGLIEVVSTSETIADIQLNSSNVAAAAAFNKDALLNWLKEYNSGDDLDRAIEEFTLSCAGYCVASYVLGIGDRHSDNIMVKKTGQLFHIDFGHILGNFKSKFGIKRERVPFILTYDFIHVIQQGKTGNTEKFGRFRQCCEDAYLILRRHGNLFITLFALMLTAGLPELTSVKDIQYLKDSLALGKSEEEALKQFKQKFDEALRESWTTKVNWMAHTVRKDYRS
Sequence of PI3Kβ (P27986 whole entry partner, species assumed): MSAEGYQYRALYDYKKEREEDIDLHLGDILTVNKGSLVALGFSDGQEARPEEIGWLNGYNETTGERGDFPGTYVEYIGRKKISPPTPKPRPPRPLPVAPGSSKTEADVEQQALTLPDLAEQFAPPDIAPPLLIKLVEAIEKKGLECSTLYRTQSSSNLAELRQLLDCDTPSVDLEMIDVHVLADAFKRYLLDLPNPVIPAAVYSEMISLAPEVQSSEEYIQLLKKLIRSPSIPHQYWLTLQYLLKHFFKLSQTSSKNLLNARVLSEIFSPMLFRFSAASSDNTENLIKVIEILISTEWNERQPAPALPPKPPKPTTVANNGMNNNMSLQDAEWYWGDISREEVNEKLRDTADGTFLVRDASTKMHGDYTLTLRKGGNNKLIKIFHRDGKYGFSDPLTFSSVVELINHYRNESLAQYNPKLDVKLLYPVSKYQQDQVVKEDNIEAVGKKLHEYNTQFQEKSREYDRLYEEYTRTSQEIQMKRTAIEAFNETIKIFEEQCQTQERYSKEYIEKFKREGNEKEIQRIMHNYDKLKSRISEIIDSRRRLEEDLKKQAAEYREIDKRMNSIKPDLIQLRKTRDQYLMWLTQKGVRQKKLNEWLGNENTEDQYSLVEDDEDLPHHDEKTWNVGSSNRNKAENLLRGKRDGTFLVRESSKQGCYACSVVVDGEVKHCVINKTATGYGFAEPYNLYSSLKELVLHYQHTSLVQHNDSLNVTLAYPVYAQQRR
According to Example 4 above, a Km value for PI3Kβ was determined to calculate a Ki value.

A further data set deals with PI3Kδ (Homo sapiens, UniProt O00329). In words: PI3Kδ inhibitory activity (Ki value). Format: biochemical. How it is done:
According to Example 2 above, after 80 μg/mL PI-3 kinase γ of the enzyme solution (80 μg/mL PI-3 kinase γ, 10 mmol/L MgCl2, 5 mmol/L DTT) was changed to 158 μg/mL PI-3 kinase δ, a method similar to the method for measuring PI3Kγ inhibitory activity was used to calculate an inhibition ratio, which was defined as the PI3Kδ inhibitory activity.
According to Example 4 above, a Km value for PI3Kδ was determined to calculate a Ki value.

For a further data set, the target named is T1, CYP3A4 (Homo sapiens, UniProt P08684).
T1 construct: host or cells: E. coli
T1 sequence (P08684 whole entry): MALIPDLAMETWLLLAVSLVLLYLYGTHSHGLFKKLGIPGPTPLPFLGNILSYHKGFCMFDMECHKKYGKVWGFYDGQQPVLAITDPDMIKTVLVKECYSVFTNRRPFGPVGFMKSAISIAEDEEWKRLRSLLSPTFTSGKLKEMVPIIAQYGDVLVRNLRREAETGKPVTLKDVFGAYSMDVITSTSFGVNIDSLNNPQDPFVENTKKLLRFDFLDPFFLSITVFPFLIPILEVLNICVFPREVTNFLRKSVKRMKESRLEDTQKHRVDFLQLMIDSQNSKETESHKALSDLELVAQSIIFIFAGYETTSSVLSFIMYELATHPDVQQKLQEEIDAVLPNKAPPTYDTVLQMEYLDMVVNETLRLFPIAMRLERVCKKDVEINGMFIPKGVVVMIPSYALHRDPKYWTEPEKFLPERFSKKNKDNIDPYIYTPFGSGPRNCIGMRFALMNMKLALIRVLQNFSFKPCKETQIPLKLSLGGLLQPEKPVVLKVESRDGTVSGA
In words: CYP3A4 fluorescence MBI test. The conditions noted are these: difference in IC50 with 0 or 30 minutes pre-reaction; CYP3A4 expressed in E. coli, substrate 7-BFC. Format: in vitro ADME. Put shortly:
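E. coli-expressed CYP3A4 debenzylating 5.6 μmol/L 7-BFC to fluorescent 7-HFC (Ex 420/Em 535 nm) in K-Pi pH 7.4 at 25° C, 15 min reaction. NADPH pre-incubation of 0 or 30 min, with 10-fold dilution before reaction. IC50 from 0.625–20 μmol/L (6 points); (+) for an IC50 shift ≥5 μmol/L, (−) for ≤3 μmol/L.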

Data set [1] is described as follows: BA test (oral absorbability, bioavailability). The format is in vivo. How it is done:
An experimental material and a method for examining oral absorbability
(1) Animals used: rats or mice were used. (2) Breeding condition: chow and sterilized tap water were allowed to be taken in freely. (3) Setting of a dosage and grouping: a predetermined dosage was administered orally or intravenously. Groups were formed as shown below. (A dosage varied depending on each compound)
Oral administration 1-30 mg/kg (n=2 to 3)
Intravenous administration 0.5-10 mg/kg (n=2 to 3)
(4) Preparation of administered liquid: In oral administration, a solution or suspension was administered. In intravenous administration, after solubilization, the administration was performed. (5) Method of Administration: In oral administration, compulsory administration to the stomach was conducted using an oral probe. In intravenous administration, administration from the caudal vein was conducted using a syringe with an injection needle. (6) Evaluation item: Blood was chronologically collected, and then the drug concentration in blood plasma was measured using a LC/MS/MS. (7) Statistical analysis: With regard to a shift in plasma concentration, the plasma concentration-time area under the curve (AUC) was calculated using a nonlinear least-squares program WinNonlin®. Bioavailability (BA) was calculated from the AUCs of the oral administration group and the intravenous administration group, respectively.

A short description of data set [2]: Solubility test (artificial intestinal juice pH 6.8, 1% DMSO). The format is physicochemical. The note with it: artificial intestinal juice pH 6.8 with 1% DMSO, fassgf or other biorelevant, kinetic from dmso stock, 25° C. The method, boiled down: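 Kinetic solubility with 1% DMSO: compound from 10 mmol/L DMSO stock spiked into pH 6.8 phosphate artificial intestinal juice, held 16 h at 25 °C, then suction-filtered. Filtrate diluted twofold in methanol/water (1/1) and quantified by HPLC or LC/MS/MS via absolute calibration.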

Where [3] appears, read: class symbols, read-out: PI3K β Ki.
The mark [4] stands for this setting: class symbols, read-out: PI3K δ Ki.

Structures are written as SMILES. Converted amounts (≈) assume the structure as drawn. Read-outs that look alike come from different tables or passages of the source.

What is called Ki is a measure of affinity in units of concentration, obtained from inhibition or displacement. In general, solubility refers to how much of the substance goes into solution per volume. Higher therefore signals a readily soluble substance.

Sequence of PI3Kδ (O00329 whole entry, species assumed): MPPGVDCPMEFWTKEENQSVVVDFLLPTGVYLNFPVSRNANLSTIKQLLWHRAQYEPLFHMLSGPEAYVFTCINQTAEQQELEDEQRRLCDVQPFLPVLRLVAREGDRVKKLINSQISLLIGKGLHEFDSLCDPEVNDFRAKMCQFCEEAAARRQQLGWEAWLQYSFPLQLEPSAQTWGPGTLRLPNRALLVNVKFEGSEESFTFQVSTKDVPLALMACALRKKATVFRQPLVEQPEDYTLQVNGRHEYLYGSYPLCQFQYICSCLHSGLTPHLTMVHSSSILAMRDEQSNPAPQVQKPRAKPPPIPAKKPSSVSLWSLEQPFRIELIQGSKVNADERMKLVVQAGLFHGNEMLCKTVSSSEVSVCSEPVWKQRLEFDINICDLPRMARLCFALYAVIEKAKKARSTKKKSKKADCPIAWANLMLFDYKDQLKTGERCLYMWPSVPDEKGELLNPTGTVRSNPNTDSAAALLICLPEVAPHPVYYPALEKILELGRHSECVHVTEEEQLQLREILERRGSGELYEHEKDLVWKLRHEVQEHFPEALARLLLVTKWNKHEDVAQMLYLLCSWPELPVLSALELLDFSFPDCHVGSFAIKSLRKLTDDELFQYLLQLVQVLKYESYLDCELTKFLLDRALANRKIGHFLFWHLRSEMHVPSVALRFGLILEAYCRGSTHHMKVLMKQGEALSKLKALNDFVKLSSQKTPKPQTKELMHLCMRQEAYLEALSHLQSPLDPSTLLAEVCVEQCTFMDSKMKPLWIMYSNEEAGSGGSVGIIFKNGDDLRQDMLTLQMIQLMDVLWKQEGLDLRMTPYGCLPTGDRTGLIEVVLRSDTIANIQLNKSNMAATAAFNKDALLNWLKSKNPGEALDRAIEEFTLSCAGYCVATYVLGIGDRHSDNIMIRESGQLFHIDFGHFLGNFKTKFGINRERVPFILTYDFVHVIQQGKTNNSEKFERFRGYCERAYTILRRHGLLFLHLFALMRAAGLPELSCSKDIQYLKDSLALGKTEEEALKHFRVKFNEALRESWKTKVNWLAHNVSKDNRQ
Sequence of PI3Kδ (P27986 whole entry partner, species assumed): as the sequence (P27986 whole entry partner, species assumed) above

In the case of `Cc1nc(NC(=O)Nc2ccccc2C(=O)NC(C)C)sc1-c1ccc(S(C)(=O)=O)c(F)c1` [Compound I-127], the Ki at PI3Kβ (setting [3]) is ≤ 3000 nM; at PI3Kβ (read-out: PI3Kβ Ki value) it was 340 nM; on PI3Kδ (setting [4]) it was ≤ 300 nM; on PI3Kδ (read-out: PI3Kδ Ki value) it was 81 nM.
With `COc1nc(Cl)cc(N2CCc3nc(NC(=O)Nc4cnccc4C(=O)NC(C)C)sc3C2)n1` [Compound I-91], the Ki on PI3Kβ (setting [3]) and on PI3Kδ (setting [4]) was ≤ 3000 nM in each case. Also, the MBI result at CYP3A4 is on record as “(−) (When 3 μmol/L or less, the compound is shown as (−))”.
`COc1cncc(-c2ccc3nc(NC(=O)Nc4ccccc4OCCC(C)C)cn3n2)c1` [Compound I-114]: the Ki on PI3Kβ (setting [3]) is ≤ 3000 nM; at PI3Kβ (read-out: PI3Kβ Ki value), 660 nM; on PI3Kδ (setting [4]), ≤ 3000 nM; at PI3Kδ (read-out: PI3Kδ Ki value), 2000 nM. In addition, the MBI result at CYP3A4 is “(−) (When 3 μmol/L or less, the compound is shown as (−))”.
As to `COc1nc(Cl)cc(N2CCc3nc(NC(=O)Nc4ccccc4C(=O)NC4CCCOC4)sc3C2)n1` (stereo not drawn) [Compound I-197], the Ki on PI3Kβ (setting [3]) and on PI3Kδ (setting [4]) was > 3000 nM each time.
As to `CC(C)NC(=O)c1ccccc1NC(=O)Nc1nc2c(s1)CN(c1cncc(C(F)(F)F)c1)CC2` [Compound I-131], the Ki at PI3Kβ (setting [3]) and at PI3Kδ (setting [4]) was > 3000 nM in each case. Further, at CYP3A4, the MBI result was “(−) (When 3 μmol/L or less, the compound is shown as (−))”.
For `COc1cc(N2CCc3nc(NC(=O)Nc4ccccc4C(=O)NCCF)sc3C2)nc(OC)n1` [Compound I-88], at CYP3A4, the MBI entry is given as “(−) (When 3 μmol/L or less, the compound is shown as (−))”.
Regarding `COc1cncc(-c2cc(NC(=O)Nc3ccccc3C(=O)NC(C)C)nn2C)c1` [Compound I-226], the inhibition constant (Ki) was > 3000 nM at PI3Kβ (setting [3]) and ≤ 3000 nM on PI3Kδ (setting [4]). Besides, the MBI result on CYP3A4 was “(−) (When 3 μmol/L or less, the compound is shown as (−))”.
`C[C@@H](CO)NC(=O)c1ccccc1NC(=O)Nc1nc2c(s1)CN(c1cncc(S(C)(=O)=O)c1)CC2` [Compound I-211]: the MBI entry at CYP3A4 is “(−) (When 3 μmol/L or less, the compound is shown as (−))”.
`COc1cc(N2CCc3nc(NC(=O)Nc4ccccc4C(=O)NC(C)C)sc3C2)nc(OC)n1` [Compound I-12]: the inhibition constant (Ki) at PI3Kβ (setting [3]) was ≤ 3000 nM; on PI3Kβ (read-out: PI3Kβ Ki value) it was 340 nM; on PI3Kδ (setting [4]), ≤ 3000 nM; on PI3Kδ (read-out: PI3Kδ Ki value) it was 590 nM. Moreover, on CYP3A4, the MBI result was “(−) (When 3 μmol/L or less, the compound is shown as (−))”. In addition, in data set [1], the “BA (Rat, 1 mg/kg, Methylcellulose suspension Oral Administration)” value is on record as 46.8%.
As for `COc1cc(N2CCc3nc(NC(=O)Nc4cn(C)nc4C(=O)NCC(F)(F)F)sc3C2)nc(OC)n1` [Compound I-148], the Ki on PI3Kβ (setting [3]) and on PI3Kδ (setting [4]) was ≤ 300 nM throughout. For the same compound, the “BA (Rat, 1 mg/kg, Methylcellulose suspension Oral Administration)” value in data set [1] amounted to 45.1%.
On to `COc1cc(N2CCc3nc(NC(=O)Nc4ccccc4C(=O)NN4CCN(C)CC4)sc3C2)nc(OC)n1` [Compound I-195], for which, at CYP3A4, the MBI result was “(−) (When 3 μmol/L or less, the compound is shown as (−))”. Moreover, the solubility at 16 h in data set [2] is > 50 µM.
`COc1cc(N2CCc3nc(NC(=O)Nc4ccccc4C(=O)NC(C)C(O)C(F)(F)F)sc3C2)nc(OC)n1` (stereo not drawn) [Compound I-139]: the MBI result on CYP3A4 was “(−) (When 3 μmol/L or less, the compound is shown as (−))”.
As for `CC(C)NC(=O)c1ccccc1NC(=O)Nc1nc2c(s1)CN(c1cccc(S(C)(=O)=O)c1)CC2` [Compound I-198], the concentration in solution in data set [2] (solubility at 16 h) was 10.1 µM (≈ 5.19 µg/mL).
On the same count and under the same terms, for `Cc1nc(NC(=O)Nc2ccccc2C(=O)NC(C)C)sc1-c1csc(S(=O)(=O)N(C)CCN(C)C)c1` [Compound I-191] the value was > 50 µM.

The values are drawn from patent US20120071475A1, “UREA DERIVATIVES HAVING PI3K-INHIBITING ACTIVITY” (SHIONOGI & CO., LTD., priority 2009, published 2012).
